By IC50 is commonly meant the concentration that gives 50% inhibition.

SMILES strings stand for the structures.

The target of assay [1] is T1, PDGFR (Homo sapiens, UniProt P09619).
T1 construct: SUGEN, Inc; host or cells: NIH 3T3 cell lysate; receptor captured on plate with monoclonal anti-PDGFR antibody 28D4C10
Description: PDGFR bioassay (ELISA, in vitro kinase activity). As to conditions: PDGFR-β expressing NIH 3T3 cell lysate; read-out: IC50 (μM) PDGF-R. The assay is classed as biochemical.

The target of assay [2] is T2, GST-Flk1 (Mus musculus, UniProt P35918).
T2 construct: GST-Flk1cd purified from sf9 recombinant baculovirus transformation (SUGEN, Inc.); host or cells: Sf9 insect cells (recombinant baculovirus)
T2 sequence (P35918 784-1345 limits assumed): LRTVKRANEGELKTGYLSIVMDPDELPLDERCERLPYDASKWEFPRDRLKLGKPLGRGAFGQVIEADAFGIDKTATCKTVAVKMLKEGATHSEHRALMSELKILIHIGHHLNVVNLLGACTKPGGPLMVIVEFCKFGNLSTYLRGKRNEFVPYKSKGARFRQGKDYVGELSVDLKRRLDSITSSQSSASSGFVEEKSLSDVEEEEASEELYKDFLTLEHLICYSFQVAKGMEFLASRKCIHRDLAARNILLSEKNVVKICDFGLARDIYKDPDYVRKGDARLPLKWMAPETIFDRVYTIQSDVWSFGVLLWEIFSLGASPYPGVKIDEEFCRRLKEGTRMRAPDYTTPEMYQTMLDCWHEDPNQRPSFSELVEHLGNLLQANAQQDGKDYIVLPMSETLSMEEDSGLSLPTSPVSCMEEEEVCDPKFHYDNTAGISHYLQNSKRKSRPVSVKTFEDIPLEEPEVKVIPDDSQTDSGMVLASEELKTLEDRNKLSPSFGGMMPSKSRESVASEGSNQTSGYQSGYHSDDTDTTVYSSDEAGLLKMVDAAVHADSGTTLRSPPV
The experiment in a line: GST-FLK-1 bioassay (ELISA, tyrosine kinase activity on poly(glu,tyr)). The assay is classed as biochemical. How it is done: The assays described herein are performed in an ELISA (Enzyme-Linked Immunosorbent Sandwich Assay) format (Voller, et al., 1980, “Enzyme-Linked Immunosorbent Assay,” Manual of Clinical Immunology, 2d ed., Rose and Friedman, Am. Soc. Of Microbiology, Washington, D.C., pp. 359-371). The general procedure is as follows: a compound is introduced to cells expressing the test kinase, either naturally or recombinantly, for a selected period of time after which, if the test kinase is a receptor, a ligand known to activate the receptor is added. The cells are lysed and the lysate is transferred to the wells of an ELISA plate previously coated with a specific antibody recognizing the substrate of the enzymatic phosphorylation reaction. Non-substrate components of the cell lysate are washed away and the amount of phosphorylation on the substrate is detected with an antibody specifically recognizing phosphotyrosine compared with control cells that were not contacted with a test compound.
This assay analyzes the tyrosine kinase activity of GST-Flk1 on poly(glu,tyr) peptides.
• 1. Corning 96-well ELISA plates (Corning Catalog No. 5805-96). • 2. poly(glu,tyr) 4:1, lyophilizate (Sigma Catalog #P0275). • 3. Preparation of poly(glu,tyr)(pEY) coated assay plates: Coat 2 ug/well of poly(glu,tyr)(pEY) in 100 μL PBS, hold at room temperature for 2 hours or at 4° C. overnight. Cover plates well to prevent evaporation. • 4. PBS Buffer: for 1 L, mix 0.2 g KH2PO4, 1.15 g Na2HPO4, 0.2 g KCl and 8 g NaCl in approx. 900 ml dH2O. When all reagents have dissolved, adjust the pH to 7.2 with HCl. Bring total volume to 1 L with dH2O. • 5. PBST Buffer: to 1 L of PBS Buffer, add 1.0 ml Tween-20. • 6. TBB—Blocking Buffer: for 1 L, mix 1.21 g TRIS, 8.77 g NaCl, 1 ml TWEEN-20 in approximately 900 ml dH2O. Adjust pH to 7.2 with HCl. Add 10 g BSA, stir to dissolve. Bring total volume to 1 L with dH2O. Filter to remove particulate matter. • 7. 1% BSA in PBS: To make a 1× working solution, add 10 g BSA to approx. 990 ml PBS buffer, stir to dissolve. Adjust total volume to 1 L with PBS buffer, filter to remove particulate matter. • 8. 50 mM Hepes pH 7.5. • 9. GST-Flk1cd purified from sf9 recombinant baculovirus transformation (SUGEN, Inc.). • 10. 4% DMSO in dH2O. • 11. 10 mMATP in dH2O. • 12. 40 mM MnCl2 • 13. Kinase Dilution Buffer (KDB): mix 10 ml Hepes (pH 7.5), 1 ml 5M NaCl, 40 μL 100 mM sodium orthovanadate and 0.4 ml of 5% BSA in dH2O with 88.56 ml dH2O. • 14. NUNC 96-well V bottom polypropylene plates, Applied Scientific Catalog #AS-72092 • 15. EDTA: mix 14.12 g ethylenediaminetetraacetic acid (EDTA) to approx. 70 ml dH2O. Add 10 N NaOH until EDTA dissolves. Adjust pH to 8.0. Adjust total volume to 100 ml with dH2O. • 16. 1^0 Antibody Dilution Buffer: mix 10 ml of 5% BSA in PBS buffer with 89.5 ml TBST. • 17. Anti-phosphotyrosine monoclonal antibody conjugated to horseradish peroxidase (PY99 HRP, Santa Cruz Biotech). • 18. 2,2′-Azinobis(3-ethylbenzthiazoline-6-sulfonic acid (ABTS, Moss, Cat. No. ABST). • 19. 10% SDS. Procedure: • 1. Coat Corning 96-well ELISA plates with 2 μg of polyEY peptide in sterile PBS as described in step 3 of Materials and Reagents. • 2. Remove unbound liquid from wells by inverting plate. Wash once with TBST. Pat the plate on a paper towel to remove excess liquid. • 3. Add 100 μl of 1% BSA in PBS to each well. Incubate, with shaking, for 1 hr. at room temperature. • 4. Repeat step 2. • 5. Soak wells with 50 mM HEPES (pH7.5) (150 μl/well). • 6. Dilute test compound with dH2O/4% DMSO to 4 times the desired final assay concentration in 96-well polypropylene plates. • 7. Add 25 μl diluted test compound to ELISA plate. In control wells, place 25 μl of dH2O/4% DMSO. • 8. Add 25 μl of 40 mM MnCl2 with 4×ATP (2 μM) to each well. • 9. Add 25 μl 0.5M EDTA to negative control wells. • 10. Dilute GST-Flk1 to 0.005 μg (5 ng)/well with KDB. • 11. Add 50 μl of diluted enzyme to each well. • 12. Incubate, with shaking, for 15 minutes at room temperature. • 13. […]
Background: An ELISA detects its analyte on a solid surface through an enzyme-linked reagent.

T1 sequence (P09619 33-1106, species assumed): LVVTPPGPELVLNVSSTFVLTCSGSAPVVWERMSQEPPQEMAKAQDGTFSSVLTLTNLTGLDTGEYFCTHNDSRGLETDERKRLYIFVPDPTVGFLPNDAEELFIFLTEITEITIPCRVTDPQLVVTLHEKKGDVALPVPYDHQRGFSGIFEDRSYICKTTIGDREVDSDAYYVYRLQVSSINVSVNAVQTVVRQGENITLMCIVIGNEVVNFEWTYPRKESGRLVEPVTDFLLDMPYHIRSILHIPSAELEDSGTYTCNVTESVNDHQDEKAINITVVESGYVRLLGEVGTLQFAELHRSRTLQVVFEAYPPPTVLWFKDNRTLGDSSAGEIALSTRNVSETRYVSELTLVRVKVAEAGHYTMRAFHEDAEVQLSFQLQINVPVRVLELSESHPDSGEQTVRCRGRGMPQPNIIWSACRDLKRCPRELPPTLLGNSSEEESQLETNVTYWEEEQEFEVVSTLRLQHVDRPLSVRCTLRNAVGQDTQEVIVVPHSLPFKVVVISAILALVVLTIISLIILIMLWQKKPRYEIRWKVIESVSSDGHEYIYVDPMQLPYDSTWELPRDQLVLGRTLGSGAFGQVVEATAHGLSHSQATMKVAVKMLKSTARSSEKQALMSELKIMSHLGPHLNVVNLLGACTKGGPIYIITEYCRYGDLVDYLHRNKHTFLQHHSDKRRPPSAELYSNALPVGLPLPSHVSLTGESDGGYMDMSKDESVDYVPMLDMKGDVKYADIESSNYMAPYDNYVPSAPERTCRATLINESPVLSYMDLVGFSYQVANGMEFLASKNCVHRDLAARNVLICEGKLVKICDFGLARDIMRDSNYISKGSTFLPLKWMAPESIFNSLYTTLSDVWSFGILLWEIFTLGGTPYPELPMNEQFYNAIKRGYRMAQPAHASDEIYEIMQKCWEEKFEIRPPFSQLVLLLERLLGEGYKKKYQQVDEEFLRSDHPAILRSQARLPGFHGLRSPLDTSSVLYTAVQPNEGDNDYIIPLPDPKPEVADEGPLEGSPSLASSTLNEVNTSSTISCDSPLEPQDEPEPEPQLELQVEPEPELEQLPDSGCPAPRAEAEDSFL

Consider `CC(=O)Nc1cccc(Nc2ncc(-c3cccs3)cn2)c1` [Example 14, N-{3-[(5-thien-2-ylpyrimidin-2-yl)amino]phenyl}acetamide], for which the IC50 in assay [1] was found to be 0.94 µM; in assay [2], 4.17 µM.

Turning to `CN1CCN(Cc2ccc(C(=O)Nc3cccc(Nc4ncc(-c5ccsc5)cn4)c3)cc2)CC1` [Example 11, 4-[(4-methylpiperazin-1-yl)methyl]-N-{3-[(5-thien-3-ylpyrimidin-2-yl)amino]phenyl}benzamide], the values for the IC50 in assay [1] and in assay [2] were 0.22 µM and 0.73 µM, respectively.

As to `O=C(Nc1cccc(Nc2ncc(-c3ccsc3)cn2)c1)N1CCCC1CN1CCCC1` (stereo not drawn) [Example 48], the IC50 is 0.21 µM in assay [1] and 3.5 µM in assay [2].

As to `O=C(CNCCN1CCOCC1)Nc1ccc(Nc2ncc(-c3ccsc3)cn2)cc1` [Example 25, 2-(2-morpholinoethylamino)-N-(4-(5-(thiophen-3-yl)pyrimidin-2-ylamino)phenyl)acetamide], the IC50 in assay [1] was determined as 0.47 µM; in assay [2] it was 5.4 µM.

With `Nc1ccc(C(=O)Nc2ccc(Nc3ncc(-c4cccs4)cn3)cc2)cc1` [Example 16, 4-amino-N-{4-[(5-thien-2-ylpyrimidin-2-yl)amino]phenyl}benzamide], the IC50 was 0.99 µM in assay [1] and greater than 20 µM in assay [2].

Turning to `CC(C)Nc1cccc(Nc2ncc(-c3ccsc3)cn2)c1` [Example 37, N-isopropyl-N′-(5-thien-3-ylpyrimidin-2-yl)benzene-1,3-diamine], the IC50 turned out to be 0.56 µM in assay [1] and 3.7 µM in assay [2].

Turning to `O=C(CN1CCOCC1)Nc1ccc(Nc2ncc(-c3ccsc3)cn2)cc1` [Example 26, 2-morpholin-4-yl-N-{4-[(5-thien-3-ylpyrimidin-2-yl)amino]phenyl}acetamide], the figures for the IC50 in assay [1] and in assay [2] were 1.1 µM and 5.6 µM, respectively.

On to `O=C(O)c1cccc(Nc2ncc(-c3ccsc3)cn2)c1` [Example 7, 3-[(5-thien-3-ylpyrimidin-2-yl)amino]benzoic acid], for which the IC50 in assay [1] was found to be 7.39 µM; in assay [2] it was 16.2 µM.

`CC(=O)c1ccc(-c2cnc(Nc3cccc(N)c3)nc2)s1` [Example 19, 1-(5-{2-[(3-aminophenyl)amino]pyrimidin-5-yl}thien-2-yl)ethanone]: the IC50 in assay [1] came to 2.4 µM; in assay [2], 8.6 µM.

With `Nc1ccc(C(=O)Nc2ccc(Nc3ncc(-c4ccsc4)cn3)cc2)cc1` [Example 4, 4-amino-N-{4-[(5-thien-3-ylpyrimidin-2-yl)amino]phenyl}benzamide], the IC50 is 0.5 µM in assay [1] and greater than 20 µM in assay [2].

With `CC(=O)Nc1ccc(Nc2ncc(-c3ccsc3)cn2)cc1` [Example 2, N-{4-[(5-thien-3-ylpyrimidin-2-yl)amino]phenyl}acetamide], the values for the IC50 in assay [1] and in assay [2] were 0.07 µM and 3.74 µM, respectively.

Consider `O=C(CN1CCCC1CN1CCCC1)Nc1ccc(Nc2ncc(-c3ccsc3)cn2)cc1` (stereo not drawn) [Example 22, 2-[2-(pyrrolidin-1-ylmethyl)pyrrolidin-1-yl]-N-{4-[(5-thien-3-ylpyrimidin-2-yl)amino]phenyl}acetamide], for which the IC50 turned out to be 0.41 µM in assay [1] and 4.5 µM in assay [2].

In the case of `O=C(CN1CCCC1)Nc1ccc(Nc2ncc(-c3ccsc3)cn2)cc1` [Example 29, 2-pyrrolidin-1-yl-N-{4-[(5-thien-3-ylpyrimidin-2-yl)amino]phenyl}acetamide], the IC50 in assay [1] amounted to 0.43 µM; in assay [2] it was 4 µM.

`O=C(Nc1ccc(Nc2ncc(-c3ccsc3)cn2)cc1)N1CCOCC1` [Example 34, N-{4-[(5-thien-3-ylpyrimidin-2-yl)amino]phenyl}morpholine-4-carboxamide]: the IC50 in assay [1] stood at 1 µM; in assay [2], 4.7 µM.

Regarding `O=C(Nc1ccc(Nc2ncc(-c3ccsc3)cn2)cc1)N1CCCC1CN1CCCC1` (stereo not drawn) [Example 33, 2-(pyrrolidin-1-ylmethyl)-N-{4-[(5-thien-3-ylpyrimidin-2-yl)amino]phenyl}pyrrolidine-1-carboxamide], the IC50 in assay [1] came to 0.66 µM; in assay [2], 4.55 µM.

For `O=C(Nc1ccccc1)c1cccc(Nc2ncc(-c3cccs3)cn2)c1` [Example 18, N-phenyl-3-[(5-thien-2-ylpyrimidin-2-yl)amino]benzamide], the IC50 in assay [1] and in assay [2] was greater than 20 µM throughout.

As for `Oc1ccc(Nc2ncc(-c3cccs3)cn2)cc1` [Example 15, 4-(5-thiophen-2-yl-pyrimidin-2-ylamino)-phenol], the IC50 in assay [1] stood at 1.7 µM; in assay [2], 4.61 µM.

On to `O=C(CN1CCC(N2CCCC2)CC1)Nc1cccc(Nc2ncc(-c3ccsc3)cn2)c1` [Example 55, 2-(4-pyrrolidin-1-yl-piperidine-1-yl)-N-[3-(5-thiophen-3-yl-pyrimidin-2-ylamino)-phenyl]-acetamide], for which the IC50 in assay [1] was 0.19 µM; in assay [2] it was 2.7 µM.

Take `Nc1cccc(Nc2ncc(-c3csc4ccccc34)cn2)c1` [Example 20, N-[5-(1-benzothien-3-yl)pyrimidin-2-yl]benzene-1,3-diamine]: the concentration for half-maximal inhibition (IC50) in assay [1] and in assay [2] was greater than 20 µM in each case.

In the case of `O=C(NCCN1CCOCC1)Nc1ccc(Nc2ncc(-c3ccsc3)cn2)cc1` [Example 31, N-(2-morpholin-4-ylethyl)-N′-{4-[(5-thien-3-ylpyrimidin-2-yl)amino]phenyl}urea], the results for the IC50 in assay [1] and in assay [2] were 0.78 µM and 5.2 µM, respectively.

Turning to `O=C(CN1CCCC1)Nc1cccc(Nc2ncc(-c3ccsc3)cn2)c1` [Example 62, 2-pyrrolidin-1-yl-N-[3-(5-thiophen-3-yl-pyrimidin-2-ylamino)-phenyl]-acetamide], the IC50 is 0.2 µM in assay [1] and 2.8 µM in assay [2].

Turning to `CN1CCN(Cc2ccc(C(=O)Nc3ccc(Nc4ncc(-c5ccsc5)cn4)cc3)cc2)CC1` [Example 12, 4-[(4-methylpiperazin-1-yl)methyl]-N-{4-[(5-thien-3-ylpyrimidin-2-yl)amino]phenyl}benzamide], the half-maximal inhibitory concentration (IC50) was determined as 0.26 µM in assay [1] and 2.52 µM in assay [2].

In the case of `O=C(CN1CCCC1CN1CCCC1)Nc1cccc(Nc2ncc(-c3ccsc3)cn2)c1` (stereo not drawn) [Example 47, N-(3-(5-(thiophen-3-yl)pyrimidin-2-ylamino)phenyl)-2-(2-((pyrrolidin-1-yl)methyl)pyrrolidin-1-yl)acetamide], the IC50 worked out at 0.18 µM in assay [1] and 2.3 µM in assay [2].

Consider `CC(=O)Nc1ccc(Nc2ncc(-c3cccs3)cn2)cc1` [Example 13, N-[4-(5-thien-2-ylpyrimidin-2-ylamino]phenyl]acetamide], for which the IC50 was found to be 0.44 µM in assay [1] and 9.86 µM in assay [2].
